PubChem BioAssay AID1963850 (Molecular Pharmacology Branch, DTP, NCI, 2024)

Tested on: 192522-019-R-J2-PDC complex tumor spheroid viability
Assay: Anticancer human tumor 192522-019-R-J2-PDC patient-derived colon adenocarcinoma cell line growth inhibition [POLQ]
Conditions: for IC50: curve of first compound; for viability, T/C: stronger effect = lower value
Method in brief: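 PDC + HUVEC + MSC complex spheroids; POLQ inhibitors ± partner drugs; top conc. at/near clinical Cmax, else 10 microM (SN-38 1 microM), half-log dilutions; 37 degrees C, 5% CO2.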

[1] = second compound 0.0316 µM, first compound 0.0316 µM
[2] = second compound 0.0316 µM, first compound 0.1 µM
[3] = second compound 0.0316 µM, first compound 0.316 µM
[4] = second compound 0.0316 µM, first compound 1 µM
[5] = second compound 0.0316 µM, first compound 3.16 µM
[6] = second compound 0.0316 µM, first compound 10 µM
[7] = second compound 0.1 µM, first compound 0.0316 µM
[8] = second compound 0.1 µM, first compound 0.1 µM
[9] = second compound 0.1 µM, first compound 0.316 µM
[10] = second compound 0.1 µM, first compound 1 µM
[11] = second compound 0.1 µM, first compound 3.16 µM
[12] = second compound 0.1 µM, first compound 10 µM
[13] = second compound 0.316 µM, first compound 0.0316 µM
[14] = second compound 0.316 µM, first compound 0.1 µM
[15] = second compound 0.316 µM, first compound 0.316 µM
[16] = second compound 0.316 µM, first compound 1 µM
[17] = second compound 0.316 µM, first compound 3.16 µM
[18] = second compound 0.316 µM, first compound 10 µM
[19] = second compound 1 µM, first compound 0.0316 µM
[20] = second compound 1 µM, first compound 0.1 µM
[21] = second compound 1 µM, first compound 0.316 µM
[22] = second compound 1 µM, first compound 1 µM
[23] = second compound 1 µM, first compound 3.16 µM
[24] = second compound 1 µM, first compound 10 µM
[25] = second compound 3.16 µM, first compound 0.0316 µM
[26] = second compound 3.16 µM, first compound 0.1 µM
[27] = second compound 3.16 µM, first compound 0.316 µM
[28] = second compound 3.16 µM, first compound 1 µM
[29] = second compound 3.16 µM, first compound 3.16 µM
[30] = second compound 3.16 µM, first compound 10 µM
[31] = second compound 10 µM, first compound 0.0316 µM
[32] = second compound 10 µM, first compound 0.1 µM
[33] = second compound 10 µM, first compound 0.316 µM
[34] = second compound 10 µM, first compound 1 µM
[35] = second compound 10 µM, first compound 3.16 µM
[36] = second compound 10 µM, first compound 10 µM
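Also: spheroids exposed to drugs for seven days before reading.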
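For viability, T/C in this document: 100% = DMSO vehicle control viability in luminescence.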

For `CC(=O)O[C@H]1C(=O)[C@@]2(C)[C@H]([C@H](OC(=O)c3ccccc3)[C@]3(O)C[C@H](OC(=O)[C@H](O)[C@@H](NC(=O)c4ccccc4)c4ccccc4)C(C)=C1C3(C)C)[C@]1(OC(C)=O)CO[C@@H]1C[C@@H]2O` + COC1C(OC(N)=O)C(O)C(Oc2ccc3c(O)c(NC(=O)c4ccc(O)c(CC=C(C)C)c4)c(=O)oc3c2C)OC1(C)C, the IC50 (second compound 0.0316 µM) was > 3 µM, the IC50 (second compound 0.1 µM) was > 3 µM and the IC50 (second compound 0.316 µM) was > 3 µM. For the same compound, the IC50 (second compound 1 µM) was > 3 µM, the IC50 (second compound 3.16 µM) was > 3 µM and the IC50 (second compound 10 µM) was > 3 µM. For the same compound, the viability, T/C (second compound 0.0316 µM, first compound 0.00949 µM) was 94.2%, the viability, T/C (second compound 0.0316 µM, first compound 0.03 µM) was 72.8% and the viability, T/C (second compound 0.0316 µM, first compound 0.0949 µM) was 56.6%. The viability, T/C (second compound 0.0316 µM, first compound 0.3 µM) was 55.9%, the viability, T/C (second compound 0.0316 µM, first compound 0.949 µM) was 55.2% and the viability, T/C (second compound 0.0316 µM, first compound 3 µM) was 48.5%. It also gave a viability, T/C (second compound 0.1 µM, first compound 0.00949 µM) of 95.6%, a viability, T/C (second compound 0.1 µM, first compound 0.03 µM) of 74.7% and a viability, T/C (second compound 0.1 µM, first compound 0.0949 µM) of 59.5%. It also gave a viability, T/C (second compound 0.1 µM, first compound 0.3 µM) of 54.7%, a viability, T/C (second compound 0.1 µM, first compound 0.949 µM) of 51.6% and a viability, T/C (second compound 0.1 µM, first compound 3 µM) of 56.9%. The viability, T/C (second compound 0.316 µM, first compound 0.00949 µM) was 91.6%, the viability, T/C (second compound 0.316 µM, first compound 0.03 µM) was 78.1% and the viability, T/C (second compound 0.316 µM, first compound 0.0949 µM) was 59.6%. For the same compound, the viability, T/C (second compound 0.316 µM, first compound 0.3 µM) was 61.9%, the viability, T/C (second compound 0.316 µM, first compound 0.949 µM) was 54.6% and the viability, T/C (second compound 0.316 µM, first compound 3 µM) was 52.4%. It also gave a viability, T/C (second compound 1 µM, first compound 0.00949 µM) of 102%, a viability, T/C (second compound 1 µM, first compound 0.03 µM) of 80.6% and a viability, T/C (second compound 1 µM, first compound 0.0949 µM) of 56.6%. For the same compound, the viability, T/C (second compound 1 µM, first compound 0.3 µM) was 52.7%, the viability, T/C (second compound 1 µM, first compound 0.949 µM) was 56.1% and the viability, T/C (second compound 1 µM, first compound 3 µM) was 54%. The viability, T/C (second compound 3.16 µM, first compound 0.00949 µM) was 99.1%, the viability, T/C (second compound 3.16 µM, first compound 0.03 µM) was 84.6% and the viability, T/C (second compound 3.16 µM, first compound 0.0949 µM) was 61.5%. It also gave a viability, T/C (second compound 3.16 µM, first compound 0.3 µM) of 55.8%, a viability, T/C (second compound 3.16 µM, first compound 0.949 µM) of 56.1% and a viability, T/C (second compound 3.16 µM, first compound 3 µM) of 59.7%. The viability, T/C (second compound 10 µM, first compound 0.00949 µM) was 102%, the viability, T/C (second compound 10 µM, first compound 0.03 µM) was 76.8% and the viability, T/C (second compound 10 µM, first compound 0.0949 µM) was 57.1%. It also gave a viability, T/C (second compound 10 µM, first compound 0.3 µM) of 55.4%, a viability, T/C (second compound 10 µM, first compound 0.949 µM) of 64% and a viability, T/C (second compound 10 µM, first compound 3 µM) of 63.1%.
In the case of `COc1ccc([C@@H](O)c2cc(-c3ncnc4cc(N5CCOCC5)ccc34)c(F)cc2Cl)nn1` + Cc1cccc(N(C)C(=O)C2C(O)CCN2c2nc(C)cc(C(F)(F)F)c2C#N)c1, the IC50 (second compound 0.0316 µM) is reported as > 10 µM, the IC50 (second compound 0.1 µM) is reported as > 10 µM and the IC50 (second compound 0.316 µM) is reported as > 10 µM. For the same compound, the IC50 (second compound 1 µM) was > 10 µM, the IC50 (second compound 3.16 µM) was > 10 µM and the IC50 (second compound 10 µM) was > 10 µM. The viability, T/C [1] was 102%, the viability, T/C [2] was 86% and the viability, T/C [3] was 103%. The viability, T/C [4] was 83.1%, the viability, T/C [5] was 85.9% and the viability, T/C [6] was 51.8%. It also gave a viability, T/C [7] of 100%, a viability, T/C [8] of 87.5% and a viability, T/C [9] of 90.1%. For the same compound, the viability, T/C [10] was 90.8%, the viability, T/C [11] was 78.9% and the viability, T/C [12] was 61.8%. The viability, T/C [13] was 104%, the viability, T/C [14] was 95.7% and the viability, T/C [15] was 102%. For the same compound, the viability, T/C [16] was 91.3%, the viability, T/C [17] was 84.9% and the viability, T/C [18] was 65%. For the same compound, the viability, T/C [19] was 98.9%, the viability, T/C [20] was 94.7% and the viability, T/C [21] was 93.7%. It also gave a viability, T/C [22] of 97.4%, a viability, T/C [23] of 89.9% and a viability, T/C [24] of 62.4%. The viability, T/C [25] was 101%, the viability, T/C [26] was 100% and the viability, T/C [27] was 105%. It also gave a viability, T/C [28] of 94.8%, a viability, T/C [29] of 95.1% and a viability, T/C [30] of 64.6%. For the same compound, the viability, T/C [31] was 106%, the viability, T/C [32] was 96.1% and the viability, T/C [33] was 104%. It also gave a viability, T/C [34] of 99.6%, a viability, T/C [35] of 89% and a viability, T/C [36] of 52.6%.
With `Nc1ccn(C2OC(CO)C(O)C2(F)F)c(=O)n1` (stereo unspecified) + COC1C(OC(N)=O)C(O)C(Oc2ccc3c(O)c(NC(=O)c4ccc(O)c(CC=C(C)C)c4)c(=O)oc3c2C)OC1(C)C the IC50 (second compound 0.0316 µM) was > 10 µM, the IC50 (second compound 0.1 µM) was > 10 µM and the IC50 (second compound 0.316 µM) was > 10 µM. For the same compound, the IC50 (second compound 1 µM) was > 10 µM, the IC50 (second compound 3.16 µM) was > 10 µM and the IC50 (second compound 10 µM) was > 10 µM. For the same compound, the viability, T/C [1] was 98.8%, the viability, T/C [2] was 72.9% and the viability, T/C [3] was 75.7%. It also gave a viability, T/C [4] of 63.5%, a viability, T/C [5] of 66% and a viability, T/C [6] of 53.9%. For the same compound, the viability, T/C [7] was 95.6%, the viability, T/C [8] was 80.1% and the viability, T/C [9] was 76.5%. For the same compound, the viability, T/C [10] was 66%, the viability, T/C [11] was 58% and the viability, T/C [12] was 57.3%. For the same compound, the viability, T/C [13] was 90.2%, the viability, T/C [14] was 79.7% and the viability, T/C [15] was 72.6%. The viability, T/C [16] was 62.4%, the viability, T/C [17] was 60.3% and the viability, T/C [18] was 59.5%. For the same compound, the viability, T/C [19] was 86.1%, the viability, T/C [20] was 84.9% and the viability, T/C [21] was 73.9%. For the same compound, the viability, T/C [22] was 72%, the viability, T/C [23] was 56.2% and the viability, T/C [24] was 58.4%. For the same compound, the viability, T/C [25] was 91.9%, the viability, T/C [26] was 87.3% and the viability, T/C [27] was 74.8%. The viability, T/C [28] was 62.9%, the viability, T/C [29] was 62.6% and the viability, T/C [30] was 53.5%. It also gave a viability, T/C [31] of 95.8%, a viability, T/C [32] of 89.4% and a viability, T/C [33] of 75.7%. For the same compound, the viability, T/C [34] was 65.1%, the viability, T/C [35] was 66.9% and the viability, T/C [36] was 58.7%.
